Reference: ChEMBL document CHEMBL1201862, “PubChem BioAssay data set” (2004)
Active and inactive are the calls of the source.

Tests used:
[1] = molecular target: Sphingosine 1-phosphate receptor 2 (Homo sapiens, UniProt O95136); assay: Late-stage fluorescence-based dose-response cell-based counterscreen assay to identify agonists of the Sphingosine 1-Phosphate Receptor 3 (S1P3): Sphingosine 1-Phosphate Receptor 2 (S1P2) agonist assay.; assay type: functional
[2] = molecular target: Sphingosine 1-phosphate receptor 4 (Homo sapiens, UniProt O95977); assay: Late-stage fluorescence-based dose-response cell-based counterscreen assay to identify agonists of the Sphingosine 1-Phosphate Receptor 3 (S1P3): Sphingosine 1-Phosphate Receptor 4 (S1P4) agonist assay.; assay type: functional
[3] = cells; assay type: functional
[4] = THP-1 cell cytotoxicity, dose response, cytotoxicity control, set 3 (AID 504852); assay type: functional; conditions: Mycobacterium tuberculosis
[5] = tested on: CHO-K1; assay: (§1) Counterscreen for antagonists of the orexin 1 receptor (OX1R; HCRTR1): Homogeneous time resolved fluorescence (HTRF)-based cell-based dose response assay to identify antagonists of the parental CHO-K1 cell line. [Related pubchem assays (depositor defined):AID434989, AID435008, AID463079, AID485270, AID492963, AID492964, AID492965, AID493232, AID504699, AID504701]; assay type: functional; conditions: Cricetulus griseus
[6] = as §1, with “Fluorescence-based” for “Homogeneous time resolved fluorescence (HTRF)-based”, “cell-based high throughput” for “cell-based”, “CHO” for “CHO-K1”; assay type: functional
[7] = molecular target: T1, Orexin/Hypocretin receptor type 1 (Homo sapiens, UniProt O43613); assay: Homogeneous Time Resolved Fluorescence (HTRF)-based cell-based high throughput dose response assay for antagonists of the orexin 1 receptor (OX1R; HCRTR1). [Related pubchem assays (depositor defined):AID434989, AID435008, AID463079, AID485270, AID492963, AID492964, AID492965, AID493232, AID504717, AID504718]; assay type: functional
[8] = molecular target: T1, Orexin/Hypocretin receptor type 1; assay: Fluorescence-based cell-based high throughput dose response assay for antagonists of the orexin 1 receptor (OX1R; HCRTR1). [Related pubchem assays (depositor defined):AID434989, AID435008, AID463079, AID485270, AID492963, AID492964, AID492965, AID493232, AID504717, AID504718]; assay type: functional
[9] = molecular target: T2, Orexin receptor type 2 (Homo sapiens, UniProt O43614); assay: Counterscreen assay for antagonists of the orexin 1 receptor (OX1R; HCRTR1): Fluorescence-based cell-based dose response assay for antagonists of the orexin 2 receptor (OX2R; HCRTR2), run by assay provider.; assay type: functional
[10] = molecular target: T2, Orexin receptor type 2; assay: Counterscreen assay for antagonists of the orexin 1 receptor (OX1R; HCRTR1): Homogeneous Time Resolved Fluorescence (HTRF)-based cell-based dose response assay for antagonists of the orexin 2 receptor (OX2R; HCRTR2), run by assay provider.; assay type: functional
[11] = molecular target: T3, RNA-binding protein pos-1 (Caenorhabditis elegans, UniProt G5EF15); assay: inhibitors of POS-1/mex-3 RNA binding, dose response, biochemical, fluorescence polarization (AID 1964);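 note: purified POS-1 fused to maltose binding protein made in E. coli; potency of compounds blocking POS-1 binding to fluorescent RNA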
T3 sequence (G5EF15 whole entry): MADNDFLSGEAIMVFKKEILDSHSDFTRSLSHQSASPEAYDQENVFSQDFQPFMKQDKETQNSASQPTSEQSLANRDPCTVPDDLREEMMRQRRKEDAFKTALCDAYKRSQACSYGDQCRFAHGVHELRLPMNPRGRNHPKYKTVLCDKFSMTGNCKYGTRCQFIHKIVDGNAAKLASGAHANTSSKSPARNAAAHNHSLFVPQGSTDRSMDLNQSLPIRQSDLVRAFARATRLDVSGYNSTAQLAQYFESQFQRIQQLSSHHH

[12] = molecular target: T4, Zinc finger protein mex-5 (Caenorhabditis elegans, UniProt Q9XUB2); assay: MEX-5/TCR-2 RNA interaction inhibitors, dose response, biochemical, C. elegans, fluorescence polarization (AID 1960)
T4 sequence (Q9XUB2 whole entry): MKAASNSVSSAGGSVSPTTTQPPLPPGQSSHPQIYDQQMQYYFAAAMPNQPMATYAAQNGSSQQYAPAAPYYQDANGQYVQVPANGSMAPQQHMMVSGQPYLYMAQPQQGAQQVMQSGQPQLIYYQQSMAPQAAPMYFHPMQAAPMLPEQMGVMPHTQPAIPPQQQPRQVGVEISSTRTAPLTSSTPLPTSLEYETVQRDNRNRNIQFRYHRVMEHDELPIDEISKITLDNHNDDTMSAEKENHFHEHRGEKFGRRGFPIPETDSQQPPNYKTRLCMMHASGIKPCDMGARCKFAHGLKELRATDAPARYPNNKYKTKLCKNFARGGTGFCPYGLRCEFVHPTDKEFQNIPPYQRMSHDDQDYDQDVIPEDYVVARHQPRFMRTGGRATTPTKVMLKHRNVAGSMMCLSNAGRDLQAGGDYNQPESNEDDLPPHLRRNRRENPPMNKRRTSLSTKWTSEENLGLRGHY

[13] = molecular target: Beta-lactamase (Pseudomonas aeruginosa, UniProt Q79MP6);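 note: biochemical dose-response test of metallo-beta-lactamase enzyme inhibition, read out by epi-absorbance; purified recombinant IMP-1 metallo-beta-lactamase with nitrocefin as substrate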
[14] = molecular target: Beta-lactamase (Salmonella choleraesuis (strain SC-B67), UniProt Q5J463)
[15] = molecular target: T5, ORF 73 (Human herpesvirus 8, UniProt O40947); assay: inhibitors of C-LANA binding to LBS DNA, dose response, biochemical, fluorescence polarization, cherry-picked samples (AID 504725); parameters: species or system Human gammaherpesvirus 8;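 note: fluorescence polarization of a labeled DNA duplex reporting LANA DNA binding; potency is for inhibitors that block LANA binding to the DNA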
T5 sequence (O40947 whole entry): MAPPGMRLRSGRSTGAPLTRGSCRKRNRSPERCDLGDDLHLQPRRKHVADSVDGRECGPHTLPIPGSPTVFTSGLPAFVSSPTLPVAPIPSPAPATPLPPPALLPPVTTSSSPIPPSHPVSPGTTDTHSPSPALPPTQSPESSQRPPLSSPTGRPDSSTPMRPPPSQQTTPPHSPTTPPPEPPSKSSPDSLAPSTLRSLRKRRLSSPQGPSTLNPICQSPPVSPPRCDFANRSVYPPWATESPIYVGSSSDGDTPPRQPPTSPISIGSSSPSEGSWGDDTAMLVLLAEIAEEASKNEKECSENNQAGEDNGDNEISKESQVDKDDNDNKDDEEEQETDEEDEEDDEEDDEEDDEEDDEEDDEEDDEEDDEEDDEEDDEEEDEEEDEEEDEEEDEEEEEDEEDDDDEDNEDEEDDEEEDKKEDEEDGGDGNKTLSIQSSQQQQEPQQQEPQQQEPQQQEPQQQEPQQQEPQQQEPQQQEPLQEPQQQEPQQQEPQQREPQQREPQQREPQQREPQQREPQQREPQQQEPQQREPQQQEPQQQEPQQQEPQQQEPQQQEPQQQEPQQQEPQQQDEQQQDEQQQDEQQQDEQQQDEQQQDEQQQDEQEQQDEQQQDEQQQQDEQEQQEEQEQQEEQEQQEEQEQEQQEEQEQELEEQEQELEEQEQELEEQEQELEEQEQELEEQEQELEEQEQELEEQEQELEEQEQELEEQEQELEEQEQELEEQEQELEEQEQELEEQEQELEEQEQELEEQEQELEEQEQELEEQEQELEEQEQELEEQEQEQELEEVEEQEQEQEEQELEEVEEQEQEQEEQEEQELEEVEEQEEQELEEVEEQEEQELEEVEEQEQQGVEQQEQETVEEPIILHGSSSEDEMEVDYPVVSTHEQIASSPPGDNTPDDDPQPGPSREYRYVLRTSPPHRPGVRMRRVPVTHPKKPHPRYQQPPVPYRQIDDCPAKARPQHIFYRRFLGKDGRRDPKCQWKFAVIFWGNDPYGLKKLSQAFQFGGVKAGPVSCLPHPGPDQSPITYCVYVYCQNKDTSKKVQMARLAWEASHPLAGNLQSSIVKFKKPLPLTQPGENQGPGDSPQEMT

[16] = molecular target: T6, Insulin-degrading enzyme (Homo sapiens, UniProt P14735); assay: activators of recombinant IDE enzyme, dose response, counter-screen for IDE activator project, biochemical, fluorescence polarization (AID 588681)
T6 sequence (P14735 whole entry): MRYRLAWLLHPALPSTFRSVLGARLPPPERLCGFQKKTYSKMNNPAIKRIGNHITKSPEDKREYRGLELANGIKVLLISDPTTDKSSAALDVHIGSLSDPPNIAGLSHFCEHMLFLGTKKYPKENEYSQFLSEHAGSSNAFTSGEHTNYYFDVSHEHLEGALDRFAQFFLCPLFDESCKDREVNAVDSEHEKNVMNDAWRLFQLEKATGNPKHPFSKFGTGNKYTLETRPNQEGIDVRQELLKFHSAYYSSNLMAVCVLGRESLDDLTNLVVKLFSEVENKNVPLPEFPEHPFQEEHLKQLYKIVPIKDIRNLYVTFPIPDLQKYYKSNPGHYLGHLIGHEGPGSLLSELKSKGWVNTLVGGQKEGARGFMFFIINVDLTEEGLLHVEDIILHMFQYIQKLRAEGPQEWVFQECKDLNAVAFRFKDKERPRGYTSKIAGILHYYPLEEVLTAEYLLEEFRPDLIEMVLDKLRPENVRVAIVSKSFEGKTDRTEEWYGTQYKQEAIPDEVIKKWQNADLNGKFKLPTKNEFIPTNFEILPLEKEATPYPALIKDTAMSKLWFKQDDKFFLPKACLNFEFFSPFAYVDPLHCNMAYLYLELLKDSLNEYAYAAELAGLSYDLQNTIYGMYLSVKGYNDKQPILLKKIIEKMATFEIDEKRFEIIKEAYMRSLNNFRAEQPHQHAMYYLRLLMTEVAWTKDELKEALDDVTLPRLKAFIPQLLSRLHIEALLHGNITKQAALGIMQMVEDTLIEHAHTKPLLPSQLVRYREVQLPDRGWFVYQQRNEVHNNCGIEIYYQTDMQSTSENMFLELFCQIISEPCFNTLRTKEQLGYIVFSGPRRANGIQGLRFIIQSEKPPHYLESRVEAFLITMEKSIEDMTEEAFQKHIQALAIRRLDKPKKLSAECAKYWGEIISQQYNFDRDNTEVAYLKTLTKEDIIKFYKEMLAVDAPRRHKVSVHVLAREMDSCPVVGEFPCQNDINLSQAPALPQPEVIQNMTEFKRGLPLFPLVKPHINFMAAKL

[17] = molecular target: Keap1/Nrf2 (Homo sapiens, UniProt Q14145); assay: Keap1-Nrf2 protein-protein interaction inhibitors, dose response, biochemical, fluorescence polarization, cherry-picked samples (AID 588683)
[18] = molecular target: T6, Insulin-degrading enzyme; assay: activators of endogenous IDE in HEK cells, dose response, cell-based, fluorescence polarization (AID 588439); assay type: functional
[19] = tested on: HEK293; assay: HEK cell cytotoxicity by LDH release, dose response, cytotoxicity control for IDE activator project, fluorescence, HEK cells (AID 588440); assay type: functional, cell-based; conditions: Homo sapiens;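 note: cytotoxicity by LDH release measuring loss of membrane integrity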
[20] = tested on: HEK293; assay: optical interference in Abeta FP readout, dose response, artefact control for IDE activator project, biochemical, fluorescence polarization (AID 588442); assay type: functional, cell-based; conditions: Homo sapiens

T1 sequence (O43613 whole entry): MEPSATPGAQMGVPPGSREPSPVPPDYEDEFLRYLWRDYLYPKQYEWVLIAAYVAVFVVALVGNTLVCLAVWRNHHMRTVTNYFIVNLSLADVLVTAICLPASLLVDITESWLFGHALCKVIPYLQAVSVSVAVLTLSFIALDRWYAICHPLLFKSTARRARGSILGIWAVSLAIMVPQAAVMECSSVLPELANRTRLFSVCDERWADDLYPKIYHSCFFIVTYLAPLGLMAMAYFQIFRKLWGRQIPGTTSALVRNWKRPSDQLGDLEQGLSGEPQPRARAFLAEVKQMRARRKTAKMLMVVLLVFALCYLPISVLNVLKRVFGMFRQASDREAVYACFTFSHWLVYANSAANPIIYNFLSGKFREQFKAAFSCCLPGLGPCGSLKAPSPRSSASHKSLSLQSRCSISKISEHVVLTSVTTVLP
T2 sequence (O43614 whole entry): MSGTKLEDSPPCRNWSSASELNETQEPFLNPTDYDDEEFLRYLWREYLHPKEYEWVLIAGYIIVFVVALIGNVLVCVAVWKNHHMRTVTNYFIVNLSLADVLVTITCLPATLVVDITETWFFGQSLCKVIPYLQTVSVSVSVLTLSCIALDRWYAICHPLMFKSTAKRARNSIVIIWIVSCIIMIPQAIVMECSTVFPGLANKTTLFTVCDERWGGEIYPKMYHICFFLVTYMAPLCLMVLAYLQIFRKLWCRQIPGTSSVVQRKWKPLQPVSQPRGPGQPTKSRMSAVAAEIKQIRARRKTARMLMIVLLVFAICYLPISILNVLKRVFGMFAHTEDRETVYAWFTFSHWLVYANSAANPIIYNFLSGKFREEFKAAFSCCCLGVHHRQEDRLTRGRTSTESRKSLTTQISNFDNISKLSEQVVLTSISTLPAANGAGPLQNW
Chain of Keap1/Nrf2 (Q16236 whole entry): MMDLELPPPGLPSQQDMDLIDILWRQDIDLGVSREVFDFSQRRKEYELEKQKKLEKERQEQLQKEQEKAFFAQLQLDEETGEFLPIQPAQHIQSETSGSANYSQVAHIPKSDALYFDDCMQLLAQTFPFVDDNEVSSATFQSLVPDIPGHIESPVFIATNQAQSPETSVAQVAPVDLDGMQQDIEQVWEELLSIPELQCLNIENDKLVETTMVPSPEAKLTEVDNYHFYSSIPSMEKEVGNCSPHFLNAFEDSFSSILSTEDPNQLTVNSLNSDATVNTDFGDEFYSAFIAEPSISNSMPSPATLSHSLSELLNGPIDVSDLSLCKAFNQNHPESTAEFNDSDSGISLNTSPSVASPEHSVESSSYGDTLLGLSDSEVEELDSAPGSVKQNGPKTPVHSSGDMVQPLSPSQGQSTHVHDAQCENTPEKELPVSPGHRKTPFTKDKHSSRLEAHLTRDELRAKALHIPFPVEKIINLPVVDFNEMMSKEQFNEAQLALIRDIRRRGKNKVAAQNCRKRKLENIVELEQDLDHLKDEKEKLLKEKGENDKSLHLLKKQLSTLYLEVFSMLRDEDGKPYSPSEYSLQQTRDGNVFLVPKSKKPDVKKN
Chain of Keap1/Nrf2 (Q14145 whole entry): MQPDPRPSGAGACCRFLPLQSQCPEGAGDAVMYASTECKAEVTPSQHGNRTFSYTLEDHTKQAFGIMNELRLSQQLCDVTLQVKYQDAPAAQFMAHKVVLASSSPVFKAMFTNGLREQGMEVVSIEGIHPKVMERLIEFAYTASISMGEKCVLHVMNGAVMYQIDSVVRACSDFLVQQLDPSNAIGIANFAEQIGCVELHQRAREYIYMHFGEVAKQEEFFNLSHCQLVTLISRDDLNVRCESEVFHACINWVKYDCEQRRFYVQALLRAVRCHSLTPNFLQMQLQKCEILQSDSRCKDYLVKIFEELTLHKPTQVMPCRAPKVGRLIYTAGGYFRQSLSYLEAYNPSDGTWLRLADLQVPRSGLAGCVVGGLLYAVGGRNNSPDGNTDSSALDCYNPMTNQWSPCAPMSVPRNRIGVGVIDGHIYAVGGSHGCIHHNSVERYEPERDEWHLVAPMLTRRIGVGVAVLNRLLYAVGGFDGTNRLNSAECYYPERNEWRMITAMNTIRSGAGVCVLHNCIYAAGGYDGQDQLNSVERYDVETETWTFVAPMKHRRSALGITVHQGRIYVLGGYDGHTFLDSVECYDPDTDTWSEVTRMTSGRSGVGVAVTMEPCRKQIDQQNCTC
Chain of Beta-lactamase (Pseudomonas aeruginosa, UniProt Q79MP6) (Q79MP6 whole entry): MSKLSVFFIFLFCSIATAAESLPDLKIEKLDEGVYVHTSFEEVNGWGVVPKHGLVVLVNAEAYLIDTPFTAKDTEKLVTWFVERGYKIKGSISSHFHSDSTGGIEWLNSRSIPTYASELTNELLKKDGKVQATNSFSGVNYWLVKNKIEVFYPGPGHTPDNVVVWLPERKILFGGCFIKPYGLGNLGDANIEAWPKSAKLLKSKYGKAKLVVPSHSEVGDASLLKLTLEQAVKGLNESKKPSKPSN
Chain of Beta-lactamase (Salmonella choleraesuis (strain SC-B67), UniProt Q5J463) (Q5J463 whole entry): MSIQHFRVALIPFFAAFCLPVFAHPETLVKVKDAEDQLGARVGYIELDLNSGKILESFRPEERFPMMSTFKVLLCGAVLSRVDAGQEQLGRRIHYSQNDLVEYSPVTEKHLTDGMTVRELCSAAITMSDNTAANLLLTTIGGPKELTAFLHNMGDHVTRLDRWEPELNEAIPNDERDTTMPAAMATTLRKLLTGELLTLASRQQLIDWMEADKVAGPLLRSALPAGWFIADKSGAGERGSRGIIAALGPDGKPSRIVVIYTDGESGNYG
Chain of Sphingosine 1-phosphate receptor 4 (O95977 whole entry): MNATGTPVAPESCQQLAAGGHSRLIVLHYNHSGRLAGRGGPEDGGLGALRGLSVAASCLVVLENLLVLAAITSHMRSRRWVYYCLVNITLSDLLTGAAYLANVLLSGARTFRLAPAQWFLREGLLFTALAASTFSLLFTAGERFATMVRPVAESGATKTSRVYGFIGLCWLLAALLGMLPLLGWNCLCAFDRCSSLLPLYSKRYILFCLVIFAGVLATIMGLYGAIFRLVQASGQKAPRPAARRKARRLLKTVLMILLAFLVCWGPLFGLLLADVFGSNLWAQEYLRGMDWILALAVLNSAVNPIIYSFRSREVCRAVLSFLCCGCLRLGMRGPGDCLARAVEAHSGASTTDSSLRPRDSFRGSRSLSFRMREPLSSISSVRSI
Chain of Sphingosine 1-phosphate receptor 2 (O95136 whole entry): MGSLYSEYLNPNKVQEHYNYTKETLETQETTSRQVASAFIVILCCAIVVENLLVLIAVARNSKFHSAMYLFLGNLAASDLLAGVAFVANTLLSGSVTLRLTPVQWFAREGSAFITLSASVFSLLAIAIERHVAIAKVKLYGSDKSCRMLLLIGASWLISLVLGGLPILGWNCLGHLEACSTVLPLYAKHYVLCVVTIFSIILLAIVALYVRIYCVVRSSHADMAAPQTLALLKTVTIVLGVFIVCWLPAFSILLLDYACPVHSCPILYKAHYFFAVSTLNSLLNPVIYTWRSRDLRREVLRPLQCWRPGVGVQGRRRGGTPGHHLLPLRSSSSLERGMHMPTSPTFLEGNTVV

CC1CCCCC1N(C(=O)c1cc(C2CC2)on1)C1CCCC1 (stereo not given)
EC50 [1]: > 50 µM (inactive) | EC50 [2]: > 50 µM (inactive)

Cc1ccc(NC(=O)COC(=O)CCc2c[nH]c3ccccc23)cc1[N+](=O)[O-]
IC50 [3]: 1.84 µM (active) | CC50 [4]: > 100 µM (active)

Cc1ccc(C)n1-c1nn(S(=O)(=O)c2cccc3cccnc23)c2cccc(F)c12
IC50 [5]: > 66.2 µM (inactive) | IC50 [6]: > 49.8 µM (inactive) | IC50 [7]: 1.93 µM (active) | IC50 [8]: 45 µM (inactive) | IC50 [9]: 29.3 µM (inactive) | IC50 [10]: > 50 µM (inactive)

O=C1c2cccc3c(O)ccc(c23)C(=O)N1c1ccc(Cl)cc1
EC50 [11]: 7.11 µM (inconclusive) | EC50 [12]: 0.289 µM (inconclusive) | IC50 [13]: 19.8 µM (inactive) | IC50 [14]: 7.95 µM (active) | AC50 [15]: 1.93 µM (active) | EC50 [16]: > 54.7 µM (inactive) | AC50 [17]: 2.53 µM (active) | EC50 [18]: > 54.7 µM (inactive) | IC50 [19]: > 89.2 µM (inactive) | EC50 [20]: > 54.7 µM (inactive)
